The nature of series [1]: RCP of single vial kit (iodide formulated with targeting agent) reconstituted with Tc 99m. Type of series: physicochemical. As to the method: (§1) KI affords stability to Tc-99m depreotide even when an oxidant (i.e. nitrate) is present in the eluate. Potassium iodide is well tolerated in humans unlike other stabilizing agents such as methionine or trolox. Methods for determining the RCP value are known in the art such as described in Cancer Res. (1998), May 1, 58(9):1850-1859, and J. Nucl. Med. (1996), June, 37(6): 1016-1022.
(§2) Further examples were conducted to show the stabilizing effect of the iodide ion for other complexes under varying conditions and with varying amounts and sources (KI and NaI) of iodide ion.

The nature of series [2]: RCP of 2-vial kit (iodide added to formulated kit, then Tc-99m added). Format: physicochemical. As to conditions: 2-vials. Here is the method:
as §1, §2

Where a SMILES comes first, the peptide text is derived from it. [ ]: non-standard residue; d: D form. The star is where a group is joined. X1 = NCCCC[C@H](NC(=O)[C@H](CS)NC(=O)[C@H](CCCCN)NC(=O)[C@@H](N)CNC(=O)C*)C(N)=O; NMeF = CN[C@@H](Cc1ccccc1)C(=O)O; hCys = N[C@@H](CCS)C(=O)O

Turning to `CC(C)[C@@H]1NC(=O)[C@H](CCCCN)NC(=O)[C@@H](Cc2c[nH]c3ccccc23)NC(=O)[C@H](Cc2ccc(O)cc2)NC(=O)[C@H](Cc2ccccc2)N(C)C(=O)[C@H](CCSCC(=O)NC[C@H](N)C(=O)N[C@@H](CCCCN)C(=O)N[C@@H](CS)C(=O)N[C@@H](CCCCN)C(N)=O)NC1=O` [Depreotide, depreotide] (cyclo([hCys](X1)[NMeF]Y[dW]KV)), the “% RCP” value came out at 89% in series [1] (KI 4 mg, 5 h); 93% in series [1] (KI 5 mg, 6 h); 95% in series [1] (KI 6 mg, 5 h); 91% in series [1] (NaI 8 mg, 6 h); 93% in series [1] (NaI 10 mg, 5 h); 94% in series [2] (KI 4 mg, 5 h). The “% RCP” value is reported as 94% in series [2] (KI 6 mg, 5 h) and 95% in series [2] (KI 10 mg, 6 h).

Values taken from patent US20080260636A1, “STABILIZATION OF RADIONUCLIDE-CONTAINING COMPOSITIONS” (priority 2001, published 2008).
